The record followed here is US20250092039A1, “GLUTARIMIDE-CONTAINING PAN-KRAS-MUTANT DEGRADER COMPOUNDS AND USES THEREOF” (Tiger Biotherapeutics Inc., priority 2022, published 2025).

The term GI50 denotes the concentration at which growth is held to half of that of the control. By IC50 is commonly meant the midpoint of a concentration-inhibition curve. As usually defined, the DC50 is the concentration at which degradation of the target reaches its halfway point. Higher therefore signals a less potent degrader.

Where two headings read alike, the source gives them in different places. A value given as a limit tells only on which side of the number the result lay.

The subject of one test is SW620 cells. Description: 3D cell growth inhibition of SW620 cells carrying endogenous KRAS G12V mutation (CellTiter-Glo 3D, GI50). Format: cell-based. Particulars: Homo sapiens, SW-620, 144 h, read-out: SW620 3D cell growth GI50. The protocol:
The following day, the test compound was administered to the cells by using 1000× compound stock solution prepared in DMSO at various concentrations. 1000× compound stock solution was first diluted in culturing medium to 10×, then 10 μL compound medium was added to each well in the cell plates. After administration of the compound, the cells were then incubated at 37° C. for 6 days. Upon completion, the plates were equilibrated at room temperature for approximately 10 minutes. 100 μL of CellTiter-Glo® 3D Reagent (Promega) was added to each well. The plates were then incubated at room temperature for 30 minutes and luminescence was recorded by EnSpire plate reader (PerkinElmer).
(ATP-based viability assays read luminescence as a measure of living cells.)

The target in another test is KRAS-G12V/RAF1 (Homo sapiens (Human), UniProt P01116, G12V). Description: KRAS/RAF1 binding inhibition assay (AlphaScreen). In outline: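 IC50 comes from variable-slope nonlinear fits of % inhibition (relative to DMSO) against inhibitor concentration. The AlphaScreen signal tracks the interaction of GppNHp-bound KRAS G12V with the RAF1 RBD after 60 min at 4° C with compound in 2% DMSO final.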
On the technique in general: Bead proximity is the source of the signal in Alpha formats.

In the next test the target is KRAS G12V (Homo sapiens (Human), UniProt P01116, G12V). Description: KRAS G12V degradation in SW620 cells (Western blot, DC50). The test is classed as cell-based. The settings on record: 24 hours. The gist of the method: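 KRAS levels were quantified by fluorescent Western blot as percent of the DMSO control after 24 h of compound exposure at 37° C in homozygous KRAS G12V SW620 cells. A four-parameter variable-slope fit of the dose-response gave the half-maximal degradation concentration.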
For orientation: Immunoblotting shows a protein as a band on a membrane.

KRAS G12V, sequence (P01116-2 other isoform, or with tags, fused parts or gaps G12V): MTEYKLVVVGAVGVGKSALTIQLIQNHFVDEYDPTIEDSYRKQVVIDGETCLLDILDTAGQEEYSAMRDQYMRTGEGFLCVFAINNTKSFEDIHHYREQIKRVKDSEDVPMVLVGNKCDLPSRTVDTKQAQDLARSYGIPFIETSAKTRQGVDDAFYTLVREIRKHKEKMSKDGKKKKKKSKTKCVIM
KRAS-G12V/RAF1, sequence (P01116-2 other isoform, or with tags, fused parts or gaps G12V): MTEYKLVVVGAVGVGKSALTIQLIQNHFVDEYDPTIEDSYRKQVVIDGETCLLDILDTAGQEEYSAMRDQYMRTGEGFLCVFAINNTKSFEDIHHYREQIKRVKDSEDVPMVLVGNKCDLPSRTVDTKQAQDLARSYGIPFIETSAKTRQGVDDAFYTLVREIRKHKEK

On to `CCc1c(F)ccc2cc(O)cc(-c3ncc4c(N5CCC[C@@H](O)CC5)nc(OCC5(CN6CCC(CN7CCN(c8ccc9c(c8)CN([C@H]8CCC(=O)NC8=O)C9=O)CC7)CC6)CC5)nc4c3F)c12` [Compound 117, (S)-3-(5-(4-((1-((1-(((7-(8-ethyl-7-fluoro-3-hydroxynaphthalen-1-yl)-8-fluoro-4-((R)-4-hydroxyazepan-1-yl)pyrido[4,3-d]pyrimidin-2-yl)oxy)methyl)cyclopropyl)methyl)piperidin-4-yl)methyl)piperazin-1-yl)-1-oxoisoindolin-2-yl)piperidine-2,6-dione], for which the GI50 in the test with SW620 cells (SW620 cells, 6 days) was greater than 100 nM. Further, at KRAS-G12V/RAF1, the 50% inhibitory concentration (IC50) is greater than 200 nM. The compound also registered a DC50 on KRAS G12V of 1 to 10 nM.

With `CCc1c(F)ccc2cc(O)cc(-c3ncc4c(N5CCC[C@@]6(CCO6)C5)nc(OCC5(CN6CCC(CN7CCN(c8ccc9c(c8)CN([C@H]8CCC(=O)NC8=O)C9=O)CC7)CC6)CC5)nc4c3F)c12` [Compound 45, (S)-3-(5-(4-((1-((1-(((7-(8-ethyl-7-fluoro-3-hydroxynaphthalen-1-yl)-8-fluoro-4-((R)-1-oxa-6-azaspiro[3.5]nonan-6-yl)pyrido[4,3-d]pyrimidin-2-yl)oxy)methyl)cyclopropyl)methyl)piperidin-4-yl)methyl)piperazin-1-yl)-1-oxoisoindolin-2-yl)piperidine-2,6-dione], in the test with SW620 cells (SW620 cells, 6 days), the concentration for 50% growth inhibition (GI50) was greater than 100 nM. On KRAS-G12V/RAF1, this compound gave a half-inhibitory concentration (IC50) greater than 200 nM.

Consider `CCc1c(F)ccc2cc(O)cc(-c3ncc4c(N5CCCC6(CCO6)C5)nc(OCC5(CN6CCC(CN7CC(N8CCN(c9ccc%10c(c9)CN([C@H]9CCC(=O)NC9=O)C%10=O)CC8)C7)CC6)CC5)nc4c3F)c12` (stereo partly drawn) [Compound 37, (3S)-3-(5-(4-(1-((1-((1-(((7-(8-ethyl-7-fluoro-3-hydroxynaphthalen-1-yl)-8-fluoro-4-(1-oxa-6-azaspiro[3.5]nonan-6-yl)pyrido[4,3-d]pyrimidin-2-yl)oxy)methyl)cyclopropyl)methyl)piperidin-4-yl)methyl)azetidin-3-yl)piperazin-1-yl)-1-oxoisoindolin-2-yl)piperidine-2,6-dione], for which the GI50 in the test on SW620 cells (SW620 cells, 6 days) is less than 10 nM. At KRAS G12V, this compound yielded a DC50 of 1 to 10 nM.

Turning to `C[C@@]1(O)CCCN(c2nc(OCC3(CN4CCC(CN5CCN(c6ccc7c(c6)CN([C@H]6CCC(=O)NC6=O)C7=O)CC5)CC4)CC3)nc3c(F)c(-c4cc(O)cc5ccc(F)c(Cl)c45)ncc23)C1` [Compound 156, (S)-3-(5-(4-((1-((1-(((7-(8-chloro-7-fluoro-3-hydroxynaphthalen-1-yl)-8-fluoro-4-((R)-3-hydroxy-3-methylpiperidin-1-yl)pyrido[4,3-d]pyrimidin-2-yl)oxy)methyl)cyclopropyl)methyl)piperidin-4-yl)methyl)piperazin-1-yl)-1-oxoisoindolin-2-yl)piperidine-2,6-dione], the GI50 with SW620 cells (SW620 cells, 6 days) is less than 10 nM. On KRAS G12V, this compound had a DC50 of less than 1 nM.

`CCc1c(F)ccc2cc(O)cc(-c3ncc4c(N5CCC[C@]6(CCO6)C5)nc(OCC5(CN6CCC(CN7CCN(c8ccc9c(c8)CN([C@H]8CCC(=O)NC8=O)C9=O)CC7)CC6)CC5)nc4c3F)c12` [Compound 44, (S)-3-(5-(4-((1-((1-(((7-(8-ethyl-7-fluoro-3-hydroxynaphthalen-1-yl)-8-fluoro-4-((S)-1-oxa-6-azaspiro[3.5]nonan-6-yl)pyrido[4,3-d]pyrimidin-2-yl)oxy)methyl)cyclopropyl)methyl)piperidin-4-yl)methyl)piperazin-1-yl)-1-oxoisoindolin-2-yl)piperidine-2,6-dione]: in the test on SW620 cells (SW620 cells, 6 days), the GI50 is less than 10 nM. The compound further registered an IC50 on KRAS-G12V/RAF1 of 20 to 200 nM.

In the case of `Cc1cc(N)nc(-c2c(Cl)c3c4c(nc(OCC5(CN6CCC7(CC6)CC(CN6CCN(c8ccc9c(c8)CN([C@H]8CCC(=O)NC8=O)C9=O)CC6)C7)CC5)nc4c2F)N(C(C)c2cccnc2N)CCO3)c1C(F)(F)F` (stereo partly drawn) [Compound 5, (3S)-3-(5-(4-((7-((1-(((9-(6-amino-4-methyl-3-(trifluoromethyl)pyridin-2-yl)-4-(1-(2-aminopyridin-3-yl)ethyl)-8-chloro-10-fluoro-5,6-dihydro-4H-[1,4]oxazepino[5,6,7-de]quinazolin-2-yl)oxy)methyl)cyclopropyl)methyl)-7-azaspiro[3.5]nonan-2-yl)methyl)piperazin-1-yl)-1-oxoisoindolin-2-yl)piperidine-2,6-dione], the GI50 in the test on SW620 cells (SW620 cells, 6 days) was greater than 100 nM. In addition, the DC50 at KRAS G12V is greater than 100 nM.

For the compound `CCc1c(F)ccc2cc(O)cc(-c3ncc4c(N5CCC[C@@](C)(O)C5)nc(OCC5(CN6CC(N7CC8(CN(c9ccc%10c(c9)CN(C9CCC(=O)NC9=O)C%10=O)C8)C7)C6)CC5)nc4c3F)c12` (stereo partly drawn) [Compound 158, 3-(5-(6-(1-((1-(((7-(8-ethyl-7-fluoro-3-hydroxynaphthalen-1-yl)-8-fluoro-4-((R)-3-hydroxy-3-methylpiperidin-1-yl)pyrido[4,3-d]pyrimidin-2-yl)oxy)methyl)cyclopropyl)methyl)azetidin-3-yl)-2,6-diazaspiro[3.3]heptan-2-yl)-1-oxoisoindolin-2-yl)piperidine-2,6-dione], the concentration for 50% growth inhibition (GI50) in the test with SW620 cells (SW620 cells, 6 days) is less than 10 nM. Also, the DC50 on KRAS G12V lay within 1 to 10 nM.

For `CCc1c(F)ccc2cc(O)cc(-c3ncc4c(N5CCCOC6CC65)nc(OCC5(CN6CCC7(CC6)CC(CN6CCN(c8ccc9c(c8)CN([C@H]8CCC(=O)NC8=O)C9=O)CC6)C7)CC5)nc4c3F)c12` (stereo partly drawn) [Compound 165, (3S)-3-(5-(4-((7-((1-(((4-(2-oxa-6-azabicyclo[5.1.0]octan-6-yl)-7-(8-ethyl-7-fluoro-3-hydroxynaphthalen-1-yl)-8-fluoropyrido[4,3-d]pyrimidin-2-yl)oxy)methyl)cyclopropyl)methyl)-7-azaspiro[3.5]nonan-2-yl)methyl)piperazin-1-yl)-1-oxoisoindolin-2-yl)piperidine-2,6-dione], the concentration for 50% growth inhibition (GI50) with SW620 cells was 10 to 100 nM. Moreover, the DC50 on KRAS G12V is 1 to 10 nM.

As for `C[C@@]1(O)CCCN(c2nc(OCC3(CN4CCC5(CC4)CC(CN4CCN(c6ccc7c(c6)CN([C@H]6CCC(=O)NC6=O)C7=O)CC4)C5)CC3)nc3c(F)c(-c4cc(O)cc5ccc(F)c(Cl)c45)ncc23)C1` [Compound 157, (S)-3-(5-(4-((7-((1-(((7-(8-chloro-7-fluoro-3-hydroxynaphthalen-1-yl)-8-fluoro-4-((R)-3-hydroxy-3-methylpiperidin-1-yl)pyrido[4,3-d]pyrimidin-2-yl)oxy)methyl)cyclopropyl)methyl)-7-azaspiro[3.5]nonan-2-yl)methyl)piperazin-1-yl)-1-oxoisoindolin-2-yl)piperidine-2,6-dione], the concentration for 50% growth inhibition (GI50) in the test on SW620 cells (SW620 cells, 6 days) was less than 10 nM. The 50% degradation concentration (DC50) at KRAS G12V is less than 1 nM.

Take `CCc1cccc2cc(O)cc(-c3ncc4c(N(C)[C@@H]5C[C@H]5F)nc(OCC5(CN6CCC(CN7CCN(c8ccc9c(c8)CN([C@H]8CCC(=O)NC8=O)C9=O)CC7)CC6)CC5)nc4c3F)c12` [Compound 29, (S)-3-(5-(4-((1-((1-(((7-(8-ethyl-3-hydroxynaphthalen-1-yl)-8-fluoro-4-(((1R,2R)-2-fluorocyclopropyl)(methyl)amino)pyrido[4,3-d]pyrimidin-2-yl)oxy)methyl)cyclopropyl)methyl)piperidin-4-yl)methyl)piperazin-1-yl)-1-oxoisoindolin-2-yl)piperidine-2,6-dione]: the 50% growth inhibitory concentration (GI50) with SW620 cells (SW620 cells, 6 days) was in the range of 10 to 100 nM. On KRAS-G12V/RAF1, this compound registered a half-maximal inhibitory concentration (IC50) greater than 200 nM.
